# Source: patent publication US9518061B2, “Substituted pyrazolylpyrazole derivative and use of same as herbicide” (KYOYU AGRI CO., LTD., priority 2013, dated 2016)
# Legend:
# Assay type in all cases: in vivo
# [1] = tested on: Rice plants; assay: Paddy herbicidal activity test, phytotoxicity to transplanted rice; conditions: rice transplanted in 2.0 leaf stage, 30 days
# Method: (§1) 1. Paddy Herbicidal Activity Test
# (§2) Rice paddy soil was filled into a 1/10000 are pot followed by the addition of suitable amounts of water and chemical fertilizer, kneading, seeding with Echinochloa crus-galli, Monochoria vaginalis and Scirpus juncoides and maintaining in an irrigated state at a water depth of 3 cm.
# (§3) Wettable powder of Target Compound (I) shown in Table 1 prepared in compliance with the preparation examples were diluted with a suitable amount of water, rice plants in the 2.0 leaf stage were transplanted during 3.5 leaf stage of Echinochloa crus-galli, and treated by dropping in chemical in the prescribed amount per are using a pipette.
# (§4) After treating for 30 days in a glass greenhouse at an average atmospheric temperature of 30° C., the herbicidal efficacy thereof was investigated.
# (§5) Evaluation of herbicidal efficacy was carried out by comparing growth inhibition rate (%) with an untreated group, while evaluation of phytotoxicity was carried out by comparing growth inhibition rate (%) with the state of a complete eradication group, and were evaluated at 11 levels indicated below.
# [2] = tested on: Echinochloa crus-galli; assay: Paddy herbicidal activity test; conditions: irrigated paddy pot, treated at 3.5 leaf stage of Echinochloa crus-galli, 30 days
# Method: as §1, §2, §3, §4, §5
# [3] = tested on: Monochoria vaginalis; assay: Paddy herbicidal activity test; conditions: irrigated paddy pot, 30 days
# Method: as §1, §2, §3, §4, §5
# [4] = tested on: Scirpus juncoides; assay: Paddy herbicidal activity test; conditions: irrigated paddy pot, 30 days
# Method: as §1, §2, §3, §4, §5
SMILES,phytotoxicity (growth inhibition rate level) Rice plants ([1]; 1g a.i./10a),phytotoxicity (growth inhibition rate level) Rice plants ([1]; 5g a.i./10a),herbicidal efficacy (growth inhibition rate level) Echinochloa crus-galli ([2]; 1g a.i./10a),herbicidal efficacy (growth inhibition rate level) Echinochloa crus-galli ([2]; 5g a.i./10a),herbicidal efficacy (growth inhibition rate level) Monochoria vaginalis ([3]; 1g a.i./10a),herbicidal efficacy (growth inhibition rate level) Monochoria vaginalis ([3]; 5g a.i./10a),herbicidal efficacy (growth inhibition rate level) Scirpus juncoides ([4]; 1g a.i./10a),herbicidal efficacy (growth inhibition rate level) Scirpus juncoides ([4]; 5g a.i./10a)
N#Cc1cnn(-c2nn3c(c2Cl)CCCC3)c1N(CCCCl)C(=O)C(F)(F)F [Compound 3],1 (10% to less than 20%),1 (10% to less than 20%),8 (80% to less than 90%),9 (90% to less than 100%),7 (70% to less than 80%),8 (80% to less than 90%),8 (80% to less than 90%),8 (80% to less than 90%)
N#Cc1cnn(-c2nn3c(c2Cl)CCCC3)c1N(CCC(F)(F)F)C(=O)C(F)(F)F [Compound 4],0 (0 (exponent): 0% to less than 10% (growth inhibition rate)),0 (0 (exponent): 0% to less than 10% (growth inhibition rate)),9 (90% to less than 100%),10 (100%),8 (80% to less than 90%),8 (80% to less than 90%),9 (90% to less than 100%),9 (90% to less than 100%)
CCOCCN(C(=O)C(F)(F)F)c1c(C#N)cnn1-c1nn2c(c1Cl)CCCC2 [Compound 5],0 (0 (exponent): 0% to less than 10% (growth inhibition rate)),1 (10% to less than 20%),9 (90% to less than 100%),9 (90% to less than 100%),8 (80% to less than 90%),8 (80% to less than 90%),8 (80% to less than 90%),9 (90% to less than 100%)
COCCCN(C(=O)C(F)(F)F)c1c(C#N)cnn1-c1nn2c(c1Cl)CCCC2 [Compound 6],0 (0 (exponent): 0% to less than 10% (growth inhibition rate)),0 (0 (exponent): 0% to less than 10% (growth inhibition rate)),9 (90% to less than 100%),10 (100%),8 (80% to less than 90%),9 (90% to less than 100%),7 (70% to less than 80%),8 (80% to less than 90%)
N#Cc1cnn(-c2nn3c(c2Cl)CCCC3)c1N(CCC(F)(F)F)C(=O)C(F)(F)C(F)(F)F [Compound 7],0 (0 (exponent): 0% to less than 10% (growth inhibition rate)),0 (0 (exponent): 0% to less than 10% (growth inhibition rate)),9 (90% to less than 100%),9 (90% to less than 100%),7 (70% to less than 80%),9 (90% to less than 100%),8 (80% to less than 90%),8 (80% to less than 90%)
N#Cc1cnn(-c2nn3c(c2Cl)CCCC3)c1N(CC(F)(F)F)C(=O)C(F)(F)F [Compound 8],0 (0 (exponent): 0% to less than 10% (growth inhibition rate)),0 (0 (exponent): 0% to less than 10% (growth inhibition rate)),8 (80% to less than 90%),9 (90% to less than 100%),9 (90% to less than 100%),9 (90% to less than 100%),9 (90% to less than 100%),10 (100%)
COCCN(C(=O)C(F)(F)F)c1c(C#N)cnn1-c1nn2c(c1Br)CCCC2 [Compound 13],0 (0 (exponent): 0% to less than 10% (growth inhibition rate)),1 (10% to less than 20%),9 (90% to less than 100%),9 (90% to less than 100%),8 (80% to less than 90%),9 (90% to less than 100%),7 (70% to less than 80%),8 (80% to less than 90%)
CCOCCN(C(=O)C(F)(F)F)c1c(C#N)cnn1-c1nn2c(c1Br)CCCC2 [Compound 14],1 (10% to less than 20%),1 (10% to less than 20%),9 (90% to less than 100%),9 (90% to less than 100%),7 (70% to less than 80%),8 (80% to less than 90%),8 (80% to less than 90%),9 (90% to less than 100%)
COCCCN(C(=O)C(F)(F)F)c1c(C#N)cnn1-c1nn2c(c1Br)CCCC2 [Compound 15],0 (0 (exponent): 0% to less than 10% (growth inhibition rate)),1 (10% to less than 20%),9 (90% to less than 100%),10 (100%),8 (80% to less than 90%),8 (80% to less than 90%),8 (80% to less than 90%),9 (90% to less than 100%)
N#Cc1cnn(-c2nn3c(c2Br)CCCC3)c1N(CCCCl)C(=O)C(F)(F)F [Compound 17],0 (0 (exponent): 0% to less than 10% (growth inhibition rate)),0 (0 (exponent): 0% to less than 10% (growth inhibition rate)),8 (80% to less than 90%),8 (80% to less than 90%),9 (90% to less than 100%),9 (90% to less than 100%),7 (70% to less than 80%),8 (80% to less than 90%)
N#Cc1cnn(-c2nn3c(c2Br)CCCC3)c1N(CCC(F)(F)F)C(=O)C(F)(F)F [Compound 18],0 (0 (exponent): 0% to less than 10% (growth inhibition rate)),1 (10% to less than 20%),9 (90% to less than 100%),10 (100%),7 (70% to less than 80%),8 (80% to less than 90%),9 (90% to less than 100%),9 (90% to less than 100%)
COCCN(C(=O)C(F)(F)F)c1c([N+](=O)[O-])cnn1-c1nn2c(c1Br)CCCC2 [Compound 23],0 (0 (exponent): 0% to less than 10% (growth inhibition rate)),0 (0 (exponent): 0% to less than 10% (growth inhibition rate)),7 (70% to less than 80%),8 (80% to less than 90%),8 (80% to less than 90%),8 (80% to less than 90%),8 (80% to less than 90%),8 (80% to less than 90%)
